Usually IC50 stands for the concentration needed to halve the response being measured. Read a low IC50 as greater potency in that assay.

The target of assay [1] is T1, Splicing factor 3B subunit 3 (Homo sapiens) (UniProt Q15393).
T1 sequence (whole entry): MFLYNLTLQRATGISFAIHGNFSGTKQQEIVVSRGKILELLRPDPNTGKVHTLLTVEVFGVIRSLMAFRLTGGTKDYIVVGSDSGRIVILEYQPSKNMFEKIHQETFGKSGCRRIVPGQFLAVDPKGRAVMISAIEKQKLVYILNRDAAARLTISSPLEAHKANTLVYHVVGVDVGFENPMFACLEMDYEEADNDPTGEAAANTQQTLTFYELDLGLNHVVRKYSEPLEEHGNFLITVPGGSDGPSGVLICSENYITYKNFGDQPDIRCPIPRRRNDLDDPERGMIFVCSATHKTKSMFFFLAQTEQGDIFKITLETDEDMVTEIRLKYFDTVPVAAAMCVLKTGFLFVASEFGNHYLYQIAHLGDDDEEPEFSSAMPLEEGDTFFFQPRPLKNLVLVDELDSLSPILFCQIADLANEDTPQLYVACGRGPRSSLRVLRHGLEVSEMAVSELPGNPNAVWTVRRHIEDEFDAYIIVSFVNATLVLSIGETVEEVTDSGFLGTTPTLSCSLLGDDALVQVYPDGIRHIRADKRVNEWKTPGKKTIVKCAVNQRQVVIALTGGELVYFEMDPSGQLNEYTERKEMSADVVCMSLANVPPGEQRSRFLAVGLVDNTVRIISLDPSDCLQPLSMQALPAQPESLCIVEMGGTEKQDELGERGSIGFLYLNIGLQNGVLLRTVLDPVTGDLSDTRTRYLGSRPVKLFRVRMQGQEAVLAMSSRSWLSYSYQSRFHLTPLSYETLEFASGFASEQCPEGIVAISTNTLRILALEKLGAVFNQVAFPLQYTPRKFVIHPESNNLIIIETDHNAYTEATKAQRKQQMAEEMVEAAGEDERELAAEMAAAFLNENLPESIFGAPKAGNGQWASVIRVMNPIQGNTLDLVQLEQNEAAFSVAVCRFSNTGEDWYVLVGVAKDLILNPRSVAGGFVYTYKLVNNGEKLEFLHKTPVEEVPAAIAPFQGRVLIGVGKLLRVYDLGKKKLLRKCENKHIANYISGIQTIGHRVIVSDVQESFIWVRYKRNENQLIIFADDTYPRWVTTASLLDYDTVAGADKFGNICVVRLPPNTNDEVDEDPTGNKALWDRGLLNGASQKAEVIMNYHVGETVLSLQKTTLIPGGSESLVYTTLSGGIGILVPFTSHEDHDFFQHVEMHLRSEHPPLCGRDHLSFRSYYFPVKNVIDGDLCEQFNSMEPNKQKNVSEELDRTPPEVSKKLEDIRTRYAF
Briefly: Displacement of [3H]probe from SAP130 in human WiDr cell immunoprecipitate sample assessed as radioactive intensity at 10 uM after 1 hr by scintillation counting.

The target in assay [2] is Splicing factor 3B subunit 1 / PHD finger-like domain-containing protein 5A (Homo sapiens, UniProt O75533+Q7RTV0). Briefly: (§1) Inhibition of SAP130 in VEGF-stimulated human U251 cells by PLAP reporter gene assay. It counts as cell-based, U-251. As to conditions: u-251.
Splicing factor 3B subunit 1 / PHD finger-like domain-containing protein 5A, sequence (O75533 whole entry, the tested form may be a part): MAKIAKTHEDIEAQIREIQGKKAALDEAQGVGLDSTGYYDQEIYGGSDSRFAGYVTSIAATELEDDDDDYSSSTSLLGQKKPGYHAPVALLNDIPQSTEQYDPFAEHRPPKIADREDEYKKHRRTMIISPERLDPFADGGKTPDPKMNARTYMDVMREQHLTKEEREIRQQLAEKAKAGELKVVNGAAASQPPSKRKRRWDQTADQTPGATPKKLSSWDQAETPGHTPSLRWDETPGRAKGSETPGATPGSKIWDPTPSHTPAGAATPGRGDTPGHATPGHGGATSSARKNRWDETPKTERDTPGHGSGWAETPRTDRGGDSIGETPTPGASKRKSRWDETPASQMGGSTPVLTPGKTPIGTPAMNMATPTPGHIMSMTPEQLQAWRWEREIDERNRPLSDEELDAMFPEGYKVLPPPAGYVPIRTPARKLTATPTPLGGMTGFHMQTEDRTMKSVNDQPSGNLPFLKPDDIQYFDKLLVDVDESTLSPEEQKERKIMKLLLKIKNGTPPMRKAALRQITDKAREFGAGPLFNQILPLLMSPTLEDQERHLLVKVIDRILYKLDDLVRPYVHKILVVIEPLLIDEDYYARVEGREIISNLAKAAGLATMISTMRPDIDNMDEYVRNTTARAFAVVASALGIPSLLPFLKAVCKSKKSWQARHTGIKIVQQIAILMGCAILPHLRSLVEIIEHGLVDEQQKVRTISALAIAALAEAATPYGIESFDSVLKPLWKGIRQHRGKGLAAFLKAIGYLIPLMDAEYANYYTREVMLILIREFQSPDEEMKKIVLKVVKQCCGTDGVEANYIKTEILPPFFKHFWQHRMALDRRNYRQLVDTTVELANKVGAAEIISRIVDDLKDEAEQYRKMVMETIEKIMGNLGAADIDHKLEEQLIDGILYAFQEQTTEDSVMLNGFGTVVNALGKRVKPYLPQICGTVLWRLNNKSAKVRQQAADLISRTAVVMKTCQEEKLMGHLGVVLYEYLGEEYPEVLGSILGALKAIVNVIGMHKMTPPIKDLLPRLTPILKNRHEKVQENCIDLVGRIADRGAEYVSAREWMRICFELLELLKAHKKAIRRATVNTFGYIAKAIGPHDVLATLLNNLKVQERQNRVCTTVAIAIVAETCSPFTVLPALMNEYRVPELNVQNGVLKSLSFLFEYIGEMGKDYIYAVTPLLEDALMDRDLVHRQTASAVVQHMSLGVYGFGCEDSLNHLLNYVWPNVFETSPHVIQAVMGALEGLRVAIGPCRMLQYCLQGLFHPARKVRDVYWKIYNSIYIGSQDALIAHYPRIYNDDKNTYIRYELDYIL
Splicing factor 3B subunit 1 / PHD finger-like domain-containing protein 5A, sequence (Q7RTV0 2-110 limits assumed): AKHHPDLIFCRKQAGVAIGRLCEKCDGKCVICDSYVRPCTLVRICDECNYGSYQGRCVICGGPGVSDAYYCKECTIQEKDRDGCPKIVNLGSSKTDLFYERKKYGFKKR
The target of assay [3] is T2, Splicing factor 3B subunit 3 (Homo sapiens, UniProt Q15393).
T2 sequence (Q15393 whole entry): T1 sequence (whole entry)
The assay is described as §1. It counts as cell-based, U-251.

In the case of `CC(=O)N[C@@H](CSC(=O)[C@]1([C@@H](O)C(C)C)NC(=O)[C@H](C)[C@@H]1O)C(=O)O` [LACTACYSTIN], in assay [1], the Activity is less than 50%. The same compound displayed an IC50 in assay [2] of 3480 nM.

As to `C=CC[C@@H]1/C=C(\C)C[C@H](C)C[C@H](OC)[C@H]2O[C@@](O)(C(=O)C(=O)N3CCCC[C@H]3C(=O)O[C@H](/C(C)=C/[C@@H]3CC[C@@H](O)[C@H](OC)C3)[C@H](C)[C@@H](O)CC1=O)[C@H](C)C[C@@H]2OC` [TACROLIMUS ANHYDROUS], the IC50 in assay [2] amounted to 13.8 nM.

For the compound `CC(/C=C/C(=O)NO)=C\[C@@H](C)C(=O)c1ccc(N(C)C)cc1` [TRICHOSTATIN], in assay [3], the midpoint of inhibition, the IC50, lay at 611 nM.

The values are drawn from ChEMBL document CHEMBL1240330, “Splicing factor SF3b as a target of the antitumor natural product pladienolide” (Nat Chem Biol, 2007).
